In patent US11135209B2, “Compositions and methods for inhibiting protein kinases” (UNIVERSITY OF HOUSTON SYSTEM, priority 2017, dated 2021):

Key:
[1] = molecular target: Recombinant RIPK2 protein (Homo sapiens, UniProt O43353); experiment: Receptor Interacting Protein Kinase 2 (RIPK2) enzyme assay (ADP-Glo); type: biochemical; settings: for inhibition at 0.5 µM: Conc. 500 nM
Description: Receptor Interacting Protein Kinase 2 (RIPK2) Enzyme Assay
Recombinant RIPK2 protein (20 ng per reaction) is diluted in the reaction buffer consisting of 40 mM Tris (pH 7.5); 20 mM MgCl2; 0.1 mg/ml BSA; 50 μM DTT. Diluted protein is added to low volume white 384 well plates (2 μL/well). Inhibitors are diluted in reaction buffer (final 25% DMSO), 1 μL is added to each well and incubated 5 min at room temperature. Reactions are initiated by the addition of 2 μL of 100 μM ATP and 1 mg/ml RS repeat peptide (SignalChem) in the reaction buffer. Plates are sealed with plastic coverslips and incubated at room temperature for 2 h. Reactions are stopped by the addition of 5 μL of ADP-Glo reagent (Promega) and ADP generation reaction is performed for 40 min at room temperature. Luminescence signal is generated by the addition of 10 μL of Kinase detection reagent (Promega) for 30 min at room temperature Luminescence signals are determined using appropriate luminescence plate-reader (typical integration time 0.3-1 sec). To calculate percent inhibition, average background signal is subtracted from test well and maximal signal wells. Inhibition, %=(1−(test signal/maximal signal))*100. The percent inhibition at a specified concentration is determined or IC50 values are calculated based on a dose range of inhibitor concentrations using non-linear regression in GraphPad Prism software.

[2] = molecular target: T1, human ALK2 (Homo sapiens, UniProt Q04771); experiment: Activin-Like Kinase 2 (ALK2) enzyme assay; type: biochemical
T1 sequence (Q04771 21-509): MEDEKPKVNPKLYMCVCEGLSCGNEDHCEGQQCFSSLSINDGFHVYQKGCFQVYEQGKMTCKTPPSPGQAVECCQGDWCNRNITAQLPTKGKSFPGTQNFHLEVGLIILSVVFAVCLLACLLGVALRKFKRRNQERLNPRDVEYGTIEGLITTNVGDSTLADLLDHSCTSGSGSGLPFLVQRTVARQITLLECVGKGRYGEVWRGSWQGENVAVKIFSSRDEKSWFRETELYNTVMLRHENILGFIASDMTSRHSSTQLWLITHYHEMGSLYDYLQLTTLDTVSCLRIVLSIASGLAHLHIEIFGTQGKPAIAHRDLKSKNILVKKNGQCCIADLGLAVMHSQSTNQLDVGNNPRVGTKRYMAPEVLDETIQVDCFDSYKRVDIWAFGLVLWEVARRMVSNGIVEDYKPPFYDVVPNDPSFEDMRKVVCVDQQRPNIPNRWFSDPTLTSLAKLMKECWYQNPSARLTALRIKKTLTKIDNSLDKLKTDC
Description: Activin-Like Kinase 2 (ALK2) Enzyme Assay
Enzyme inhibitory activity was evaluated in a standard kinase enzyme assay by incubating human ALK2 with the protein substrate casein (1 mg/mL) and γ-^33ATP (10 μM) in the presence of various concentrations of test compounds (10 nM-100 μM). After 30 min the amount of ^33P-casein was determined.

[3] = test system: NOD2 cellular signaling in HEK-Blue cells expressing human NOD2; experiment: NOD2 cell signaling assay (HEK-Blue, NFkB-SEAP reporter, L18-MDP stimulated); type: cell-based; settings: read-out: IC50 (nM) HEKBlue RIPK2
Description: NOD2 Cell Signaling Assay.
HEK-Blue cells expressing human NOD2 and NFkB-SAEP reporter (Invivogen) are seeded into 96 well clear plates at 7.5×10^3 cells per well in 100 μL of DMEM media supplemented with 10% FBS and 1% antibiotic-antimycotic mix. Cells are allowed to attach for 48 h in 5% CO2 tissue culture incubator at 37° C. On the morning of the experiment, media in the wells is replaced with 100 pt of HEK-Blue detection media (Invivogen). Cells are treated with the inhibitors, diluted in DMSO (0.5 μL per well) for 15 min in 5% CO2 tissue culture incubator at 37° C. After that, cells are stimulated by the addition of 1 ng/well L18-MDP (Invivogen). Cells are incubated in 5% CO2 tissue culture incubator at 37° C. for 8 h and absorbance, corresponding to the SEAP in the media, is determined in Wallac3V plate reader (Perkin Elmer). Inhibition, %=(1−((sample signal-unstimulated and DMSO treated cells)/(L18-MDP stimulated and DMSO treated cells−unstimulated and DMSO treated cells)))*100. IC50 values are calculated based on a dose range of inhibitor concentrations using non-linear regression in GraphPad Prism software.

Recombinant RIPK2 protein, sequence (O43353 whole entry, species assumed): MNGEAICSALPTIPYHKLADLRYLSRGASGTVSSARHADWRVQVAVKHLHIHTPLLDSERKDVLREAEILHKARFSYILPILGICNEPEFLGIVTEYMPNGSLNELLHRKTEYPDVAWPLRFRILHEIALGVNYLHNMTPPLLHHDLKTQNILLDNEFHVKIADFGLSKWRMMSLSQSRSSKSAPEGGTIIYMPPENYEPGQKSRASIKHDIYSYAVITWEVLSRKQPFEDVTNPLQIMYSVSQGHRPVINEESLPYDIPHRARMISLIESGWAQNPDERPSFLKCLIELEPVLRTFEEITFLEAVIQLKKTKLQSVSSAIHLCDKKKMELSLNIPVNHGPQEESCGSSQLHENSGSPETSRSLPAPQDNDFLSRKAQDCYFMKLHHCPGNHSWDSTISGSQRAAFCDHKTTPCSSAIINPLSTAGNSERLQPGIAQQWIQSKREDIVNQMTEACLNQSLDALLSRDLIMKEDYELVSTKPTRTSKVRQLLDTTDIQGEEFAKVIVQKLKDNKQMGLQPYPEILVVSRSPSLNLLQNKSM

SMILES	inhibition at 0.5 µM [1] [%]	IC50 [2] [nM]	IC50 [3] [nM]	IC50 [1] [nM]	inhibition at 0.25 µM ([1]; Conc. 250 nM) [%]
CCCS(=O)(=O)Nc1ccc(-c2cc(-c3ccc(N4CCNCC4)cc3)cnc2C)cc1OC [CSLP1, N-(2-methoxy-4-(2-methyl-5-(4-(piperazin-1-yl)phenyl)pyridin-3-yl)phenyl)propane-1-sulfonamide]	< 0	> 100000	> 1000		
COc1cc(NS(C)(=O)=O)cc(-c2cc(-c3ccc(N4CCNCC4)cc3)cnc2C)c1 [CSLP2, N-(3-Methoxy-5-(2-methyl-5-(4-(piperazin-1-yl)phenyl)pyridin-3-yl)phenyl)methanesulfonamide]		> 10	> 1000	> 100	39
COc1cc(NS(C)(=O)=O)cc(-c2cc(-c3ccc(N4CCNCC4)cc3)cnc2N)c1 [CSLP3]		> 1	> 100	> 10	
CCCS(=O)(=O)Nc1cc(OC)cc(-c2cc(-c3ccc(N4CCNCC4)cc3)cnc2N)c1 [CSLP6]		> 1	> 100	> 10	
CCS(=O)(=O)Nc1cc(OC)cc(-c2cc(-c3ccc(N4CCNCC4)cc3)cnc2N)c1 [CSLP7]			> 100	> 10	
COc1cc(NS(=O)(=O)C(C)C)cc(-c2cc(-c3ccc(N4CCNCC4)cc3)cnc2N)c1 [CSLP8]		> 1	> 100	> 10	
COc1cc(NS(=O)(=O)C2CC2)cc(-c2cc(-c3ccc(N4CCNCC4)cc3)cnc2C)c1 [CSLP9, N-(3-Methoxy-5-(2-methyl-5-(4-(piperazin-1-yl)phenyl)pyridin-3-yl)phenyl)cyclopropanesulfonamide]	76		> 1000		
CCCS(=O)(=O)Nc1cc(OC)cc(-c2cc(-c3ccc(N4CCNCC4)cc3)cnc2C)c1 [CSLP10, N-(3-Methoxy-5-(2-methyl-5-(4-(piperazin-1-yl)phenyl)pyridin-3-yl)phenyl)propane-1-sulfonamide]	84	> 10	> 1000	> 100	
COc1cc(NS(=O)(=O)C2CC2)cc(-c2cc(-c3ccc(N4CCNCC4)cc3)cnc2N)c1 [CSLP11, N-(3-(2-Amino-5-(4-(piperazin-1-yl)phenyl)pyridin-3-yl)-5-methoxyphenyl)cyclopropanesulfonamide]			> 100	> 10	
COc1cc(NS(=O)(=O)CC(C)C)cc(-c2cc(-c3ccc(N4CCNCC4)cc3)cnc2N)c1 [CSLP12, N-(3-(2-Amino-5-(4-(piperazin-1-yl)phenyl)pyridin-3-yl)-5-methoxyphenyl)-2-methylpropane-1-sulfonamide]		> 1	> 100	> 10	
CCS(=O)(=O)Nc1cc(OC)cc(-c2cc(-c3ccc(N4CCNCC4)cc3)cnc2Cl)c1 [CSLP14]	86	> 10	> 1000	> 100	
CCS(=O)(=O)Nc1cc(OC)cc(-c2cc(-c3ccc(N4CCNCC4)cc3)cnc2C)c1 [CSLP15, N-(3-Methoxy-5-(2-methyl-5-(4-(piperazin-1-yl)phenyl)pyridin-3-yl)phenyl)ethanesulfonamide]	73	> 10	> 1000	> 100	
COc1cc(NS(=O)(=O)C(C)C)cc(-c2cc(-c3ccc(N4CCNCC4)cc3)cnc2C)c1 [CSLP16, N-(3-Methoxy-5-(2-methyl-5-(4-(piperazin-1-yl)phenyl)pyridin-3-yl)phenyl)propane-2-sulfonamide]	85	> 100	> 100	> 10	
COc1cc(NS(=O)(=O)CC(C)C)cc(-c2cc(-c3ccc(N4CCNCC4)cc3)cnc2C)c1 [CSLP17, N-(3-Methoxy-5-(2-methyl-5-(4-(piperazin-1-yl)phenyl)pyridin-3-yl)phenyl)-2-methylpropane-1-sulfonamide]	86	> 10	> 1000	> 10	
CCCS(=O)(=O)Nc1cc(-c2cc(-c3ccc(N4CCNCC4)cc3)cnc2N)ccc1OC [CSLP18]		> 1000	> 100	> 10	
CCCS(=O)(=O)Nc1cc(-c2cc(-c3ccc(N4CCNCC4)cc3)cnc2N)cc(OC)c1C [CSLP19, N-(5-(2-Amino-5-(4-(piperazin-1-yl)phenyl)pyridin-3-yl)-3-methoxy-2-methylphenyl)propane-1-sulfonamide]		> 100	> 1000	> 1000	
COc1cc(NS(=O)(=O)c2ccccc2)cc(-c2cc(-c3ccc(N4CCNCC4)cc3)cnc2N)c1 [CSLP20, N-(3-(2-Amino-5-(4-(piperazin-1-yl)phenyl)pyridin-3-yl)-5-methoxyphenyl)benzenesulfonamide]		> 1	> 10	> 1	
COc1cc(-c2cc(-c3ccc(N4CCNCC4)cc3)cnc2N)cc(NS(C)(=O)=O)c1C [CSLP21, N-(5-(2-Amino-5-(4-(piperazin-1-yl)phenyl)pyridin-3-yl)-3-methoxy-2-methylphenyl)methanesulfonamide]		> 100	> 1000	> 1000	
CCOc1cc(NS(=O)(=O)C(C)C)cc(-c2cc(-c3ccc(N4CCNCC4)cc3)cnc2N)c1 [CSLP22, N-(3-(2-Amino-5-(4-(piperazin-1-yl)phenyl)pyridin-3-yl)-5-ethoxyphenyl)propane-2-sulfonamide]		> 100	> 10	> 10	
COc1cc(NS(=O)(=O)Cc2ccccc2)cc(-c2cc(-c3ccc(N4CCNCC4)cc3)cnc2N)c1 [CSLP24, N-(3-(2-Amino-5-(4-(piperazin-1-yl)phenyl)pyridin-3-yl)-5-methoxyphenyl)-1-phenylmethanesulfonamide]		> 1	> 100	> 100	
COc1cc(-c2cc(-c3ccc(N4CCNCC4)cc3)cnc2N)cc(NS(=O)(=O)C(C)C)c1C [CSLP25, N-(5-(2-Amino-5-(4-(piperazin-1-yl)phenyl)pyridin-3-yl)-3-methoxy-2-methylphenyl)propane-2-sulfonamide]		> 1000	> 1000	> 1000	
CCCS(=O)(=O)Nc1cc(-c2cc(-c3ccc(N4CCNCC4)cc3)cnc2N)ccc1C [CSLP26, N-(5-(2-Amino-5-(4-(piperazin-1-yl)phenyl)pyridin-3-yl)-2-methylphenyl)propane-1-sulfonamide]		> 1000	> 1000	> 100	
COc1ccc(-c2cc(-c3ccc(N4CCNCC4)cc3)cnc2N)cc1NS(=O)(=O)C(C)C [CSLP28, N-(5-(2-Amino-5-(4-(piperazin-1-yl)phenyl)pyridin-3-yl)-2-methoxyphenyl)propane-2-sulfonamide]		> 1000	> 100	> 10	
CC(C)Oc1cc(NS(=O)(=O)C(C)C)cc(-c2cc(-c3ccc(N4CCNCC4)cc3)cnc2N)c1 [CSLP29, N-(3-(2-Amino-5-(4-(piperazin-1-yl)phenyl)pyridin-3-yl)-5-isopropoxyphenyl)propane-2-sulfonamide]		> 100000	> 100	> 100	
CCCS(=O)(=O)Nc1cc(-c2cc(-c3cccc(S(C)(=O)=O)c3)cnc2N)ccc1OC [CSLP30]		> 10000	> 1000	> 100	
